{
  "source": "the OligoGym collection",
  "note": "Only the 19 paired bases of each siRNA are shown; overhangs and chemistry are not given here. Further: test concentration or dose not given here.",
  "data": [
    {"target": "DBI", "experiment": "five studies, different assays", "conditions": "siRNA", "units": {"target inhibition": "%"}, "values": [
      {"substance": "sense UUACUGACUUUCCUUGAGU / antisense ACUCAAGGAAAGUCAGUAA", "target inhibition": -8.35},
      {"substance": "sense UGGGAUGCCUGGAAUGAGC / antisense GCUCAUUCCAGGCAUCCCA", "target inhibition": 4.9},
      {"substance": "sense AAACGAUUACUGACUUUCC / antisense GGAAAGUCAGUAAUCGUUU", "target inhibition": -18.6},
      {"substance": "sense AGAUGCCAUGAAAGCUUAC / antisense GUAAGCUUUCAUGGCAUCU", "target inhibition": -9.13},
      {"substance": "sense AAGAGCUAAAGAAAAAAUA / antisense UAUUUUUUCUUUAGCUCUU", "target inhibition": 68},
      {"substance": "sense UGAAAGCUUACAUCAACAA / antisense UUGUUGAUGUAAGCUUUCA", "target inhibition": 33.7},
      {"substance": "sense ACUGAGACAAUGCCUUGUU / antisense AACAAGGCAUUGUCUCAGU", "target inhibition": 6.01},
      {"substance": "sense AAAGUAGAAGAGCUAAAGA / antisense UCUUUAGCUCUUCUACUUU", "target inhibition": 71.8},
      {"substance": "sense AAGAUGCCAUGAAAGCUUA / antisense UAAGCUUUCAUGGCAUCUU", "target inhibition": 50.7}
    ]},
    {"target": "GAPDH", "experiment": "five studies, different assays", "conditions": "siRNA", "units": {"target inhibition": "%"}, "values": [
      {"substance": "sense CAUGAGAAGUAUGACAACA / antisense UGUUGUCAUACUUCUCAUG", "target inhibition": 92.4},
      {"substance": "sense AAGUAUGACAACAGCCUCA / antisense UGAGGCUGUUGUCAUACUU", "target inhibition": 94.2},
      {"substance": "sense UCAUGGGUGUGAACCAUGA / antisense UCAUGGUUCACACCCAUGA", "target inhibition": 60.5},
      {"substance": "sense CCCCUGGCCAAGGUCAUCC / antisense GGAUGACCUUGGCCAGGGG", "target inhibition": -2.51},
      {"substance": "sense ACCAUGAGAAGUAUGACAA / antisense UUGUCAUACUUCUCAUGGU", "target inhibition": 92.5},
      {"substance": "sense UGGCCAAGGUCAUCCAUGA / antisense UCAUGGAUGACCUUGGCCA", "target inhibition": 91.5},
      {"substance": "sense UGACAACUUUGGUAUCGUG / antisense CACGAUACCAAAGUUGUCA", "target inhibition": 43},
      {"substance": "sense CAGGGGGGAGCCAAAAGGG / antisense CCCUUUUGGCUCCCCCCUG", "target inhibition": -24.4},
      {"substance": "sense GUCAUCAUCUCUGCCCCCU / antisense AGGGGGCAGAGAUGAUGAC", "target inhibition": 69.8},
      {"substance": "sense CCAAAAGGGUCAUCAUCUC / antisense GAGAUGAUGACCCUUUUGG", "target inhibition": 93.9},
      {"substance": "sense GUGUGAACCAUGAGAAGUA / antisense UACUUCUCAUGGUUCACAC", "target inhibition": 92.7},
      {"substance": "sense GCACCACCAACUGCUUAGC / antisense GCUAAGCAGUUGGUGGUGC", "target inhibition": 38.6},
      {"substance": "sense UGUUCGUCAUGGGUGUGAA / antisense UUCACACCCAUGACGAACA", "target inhibition": 80.3},
      {"substance": "sense UGCUGAUGCCCCCAUGUUC / antisense GAACAUGGGGGCAUCAGCA", "target inhibition": 12.7},
      {"substance": "sense GGAGCCAAAAGGGUCAUCA / antisense UGAUGACCCUUUUGGCUCC", "target inhibition": 88.7},
      {"substance": "sense GACAACAGCCUCAAGAUCA / antisense UGAUCUUGAGGCUGUUGUC", "target inhibition": 94.2},
      {"substance": "sense AAGGACUCAUGACCACAGU / antisense ACUGUGGUCAUGAGUCCUU", "target inhibition": -17.4},
      {"substance": "sense AUGACAACAGCCUCAAGAU / antisense AUCUUGAGGCUGUUGUCAU", "target inhibition": 58.3},
      {"substance": "sense GAUCAUCAGCAAUGCCUCC / antisense GGAGGCAUUGCUGAUGAUC", "target inhibition": 70.8},
      {"substance": "sense GUAUGACAACAGCCUCAAG / antisense CUUGAGGCUGUUGUCAUAC", "target inhibition": 77.6}
    ]},
    {"target": "Renilla luciferase", "experiment": "five studies, different assays", "conditions": "siRNA", "units": {"target inhibition": "%"}, "values": [
      {"substance": "sense AGAUGCACCUGAUGAAAUG / antisense CAUUUCAUCAGGUGCAUCU", "target inhibition": 63.9},
      {"substance": "sense UCUACGUGCAAGUGAUGAU / antisense AUCAUCACUUGCACGUAGA", "target inhibition": 89.5},
      {"substance": "sense AGUUCGUCGUCCAACAUUA / antisense UAAUGUUGGACGACGAACU", "target inhibition": 66.5},
      {"substance": "sense AAGUGUAGUAGAUGUGAUU / antisense AAUCACAUCUACUACACUU", "target inhibition": 87.9},
      {"substance": "sense GAACAAAGGAAACGGAUGA / antisense UCAUCCGUUUCCUUUGUUC", "target inhibition": 84.4},
      {"substance": "sense UUUAUGGCGACAUGUUGUG / antisense CACAACAUGUCGCCAUAAA", "target inhibition": 29.4},
      {"substance": "sense AUCAUGAGAAAGUUAGAAC / antisense GUUCUAACUUUCUCAUGAU", "target inhibition": 47.3},
      {"substance": "sense UCUUACUGCAUGGUUUGAA / antisense UUCAAACCAUGCAGUAAGA", "target inhibition": 52.3},
      {"substance": "sense GAAUUUGCAGCAUAUCUUG / antisense CAAGAUAUGCUGCAAAUUC", "target inhibition": 84.8},
      {"substance": "sense CAGCAUAUCUUGAACCAUU / antisense AAUGGUUCAAGAUAUGCUG", "target inhibition": 83.7},
      {"substance": "sense GAUCAAAUCUGAAGAAGGA / antisense UCCUUCUUCAGAUUUGAUC", "target inhibition": 90.9},
      {"substance": "sense GCCAAGAAGUUUCCUAAUA / antisense UAUUAGGAAACUUCUUGGC", "target inhibition": 72.2}
    ]},
    {"target": "placental-type alkaline phosphatase", "experiment": "five studies, different assays", "conditions": "siRNA", "units": {"target inhibition": "%"}, "values": [
      {"substance": "sense ACCUCAUCAUCUUCCUGGG / antisense CCCAGGAAGAUGAUGAGGU", "target inhibition": 49},
      {"substance": "sense ACAGACAGCCGCCAAGAAC / antisense GUUCUUGGCGGCUGUCUGU", "target inhibition": 54.7}
    ]},
    {"target": "PLK1", "experiment": "five studies, different assays", "conditions": "siRNA", "units": {"target inhibition": "%"}, "values": [
      {"substance": "sense UAUUUCCGCAAUUACAUGA / antisense UCAUGUAAUUGCGGAAAUA", "target inhibition": 57.1},
      {"substance": "sense AUGAAGAUCUGGAGGUGAA / antisense UUCACCUCCAGAUCUUCAU", "target inhibition": 55},
      {"substance": "sense AUGACUCAACACGCCUCAU / antisense AUGAGGCGUGUUGAGUCAU", "target inhibition": 58.4},
      {"substance": "sense UUUGAGACUUCUUGCCUAA / antisense UUAGGCAAGAAGUCUCAAA", "target inhibition": 82.2},
      {"substance": "sense GGGCGGCUUUGCCAAGUGC / antisense GCACUUGGCAAAGCCGCCC", "target inhibition": 30.6},
      {"substance": "sense AGAUUGUGCCUAAGUCUCU / antisense AGAGACUUAGGCACAAUCU", "target inhibition": 68.5},
      {"substance": "sense AGAAUGAAUACAGUAUUCC / antisense GGAAUACUGUAUUCAUUCU", "target inhibition": 58},
      {"substance": "sense GAUGUCCAUGGAAAUAUCC / antisense GGAUAUUUCCAUGGACAUC", "target inhibition": 43.9},
      {"substance": "sense CAGUUUCGAGGUGGAUGUG / antisense CACAUCCACCUCGAAACUG", "target inhibition": 52.6},
      {"substance": "sense AGAUCACCCUCCUUAAAUA / antisense UAUUUAAGGAGGGUGAUCU", "target inhibition": 72.5}
    ]}
  ]
}
